According to patent US5292734A, “Angiotensin II receptor blocking 2,3,6 substituted quinazolinones” (American Cyanamid Company, priority 1993, dated 1994):

Molecular target: T1, Angiotensin II Receptor (Bos taurus, UniProt P25104)
T1 construct: The brownish tissue forming the adrenal cortex is scraped off and finely minced with scissors before homogenization; from tissue; host or cells: beef adrenal cortex, microsomal membranes (100,000 x g pellet)
T1 sequence (P25104 1-359): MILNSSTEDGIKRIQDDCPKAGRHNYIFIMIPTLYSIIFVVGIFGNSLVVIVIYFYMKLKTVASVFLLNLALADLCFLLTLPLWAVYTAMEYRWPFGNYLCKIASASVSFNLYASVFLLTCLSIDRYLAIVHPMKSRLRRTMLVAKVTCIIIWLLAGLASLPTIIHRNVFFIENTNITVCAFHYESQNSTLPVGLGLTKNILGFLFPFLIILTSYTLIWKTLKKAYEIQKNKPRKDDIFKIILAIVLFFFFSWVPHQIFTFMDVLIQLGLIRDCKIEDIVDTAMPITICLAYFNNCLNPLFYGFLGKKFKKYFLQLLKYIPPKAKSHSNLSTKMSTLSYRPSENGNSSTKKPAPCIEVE
Test: Receptor binding assay: binding of [^125 I](Sar^1,Ile^8)AngII
Conditions: beef adrenal cortex membranes, 60 min, room temperature
Description: Beef adrenals are obtained from a local slaughter house (Maxwell-Cohen). [^125 I](Sar^1,Ile^8)AngII, S. A. 2200 Ci/mmole, is purchased from Dupont (NEN®, Boston, Mass.). All unlabeled AngII analogs, Dimethylsulfoxide (DMSO), nucleotides, bovine serum albumin (BSA) are purchased from Sigma Chemical Co., St. Louis, Mo. U.S.A.
Approximately sixteen (16) to twenty (20) beef adrenal glands are processed as follows: fresh adrenal glands received on crushed ice are cleaned of fatty tissues and the tough membranes encapsulating the glands are removed and discarded. […] A 100 ul aliquot is withdrawn and the protein content of the preparation is determined by the Lowry's method (Lowry, O. H., Rosebrough, N. P., Farr, A. L. and Randall, R. J., Protein measurement with Polin phenol reagent. J. Biol. Chem., […], 265-275, 1951). […]
The binding of [^125 I](Sar^1 Ile^8)AngII to microsomal membranes is initiated by the addition of reconstituted membranes (1:10 vols.) in freshly made 50.0 mM Tris.HCl buffer, pH 7.4 containing 0.25% heat inactivated bovine serum albumin (BSA): 80 ul membrane protein (10 to 20 ug/assay) to wells already containing 100 ul of incubation buffer (as described above) and 20 ul [^125 I](Sar^1 Ile^8)AngII (Specific Activity, 2200 Ci/mmole). Non-specific binding is measured in the presence of 1.0 uM unlabeled (Sar^1,Ile^8)AngII, added in 20 ul volume. […]

IC50: 3.5 nM
SMILES: CCCCc1nc2ccc(C(C)(O)CC3CCCN3)cc2c(=O)n1Cc1ccc(-c2ccccc2-c2nnn[nH]2)cc1 (stereo not drawn) [Example 79, CIS-2-Butyl-6-[1-hydroxy-1-methyl-2-(2-pyrrolidinyl)ethyl]-3-[[21-(1H-tetrazol-5-yl)[1,1'-biphenyl]-4-yl]methyl]-4(3H)-quinazolinone]
